Source: patent US9511091B2, “Rare earth metal compounds, methods of making, and methods of using the same” (Spectrum Pharmaceuticals, Inc., priority 2002, dated 2016)

Assays:
[1] = reactivity with respect to phosphate: phosphate removal from pH 3 Na2HPO4/HCl stock solution; type: binding; conditions: for rate of removal of phosphate compared with commercial lanthanum carbonate hydrate La2(CO3)3.H2O and La2(CO3)3.4H2O: FIGS. 17, 20, 23, pH 3; for capacity of phosphate removal (PO4 removed/g of La compound) / phosphate in solution removed: after 10 min, pH 3, La 3 times the stoichiometric amount
Method: A desirable lanthanum carbonate hydroxide is LaCO3OH. […] To determine the reactivity of the lanthanum carbonate hydroxide compound with respect to phosphate, the following procedure was used. A stock solution containing 13.75 g/l of anhydrous Na2HPO4 and 8.5 g/l of HCl is prepared. The stock solution is adjusted to pH 3 by the addition of concentrated HCl. 100 ml of the stock solution is placed in a beaker with a stirring bar. A sample of lanthanum carbonate hydroxide powder is added to the solution. The amount of lanthanum carbonate hydroxide powder is such that the amount of La in suspension is 3 times the stoichiometric amount needed to react completely with the phosphate. Samples of the suspension are taken at intervals, through a filter that separated all solids from the liquid. The liquid sample is analyzed for phosphorous.
(§1) To determine the reactivity of the lanthanum compound with respect to phosphate, the following test was conducted. A stock solution containing 13.75 g/l of anhydrous Na2HPO4 and 8.5 g/l of HCl was prepared. The stock solution was adjusted to pH 3 by the addition of concentrated HCl. An amount of 100 ml of the stock solution was placed in a beaker with a stirring bar. The lanthanum oxychloride from above was added to the solution to form a suspension. The amount of lanthanum oxychloride was such that the amount of La in suspension was 3 times the stoichiometric amount needed to react completely with the phosphate. Samples of the suspension were taken at time intervals, through a filter that separated all solids from the liquid. The liquid sample was analyzed for phosphorous.
as §1, with “Lanthanum carbonate hydroxide powder made as described” for “The lanthanum oxychloride from”, “solution.” for “solution to form a suspension.”, “carbonate hydroxide powder” for “oxychloride”, “intervals” for “intervals,”
(§2) To determine the reactivity of this lanthanum compound with respect to phosphate, the following test was conducted. A stock solution containing 13.75 g/l of anhydrous Na2HPO4 and 8.5 g/l of HCl was prepared. The stock solution was adjusted to pH 3 by the addition of concentrated HCl. An amount of 100 ml of the stock solution was placed in a beaker with a stirring bar. Anhydrous lanthanum oxycarbonate made as described above, was added to the solution. The amount of anhydrous lanthanum oxycarbonate was such that the amount of La in suspension was 3 times the stoichiometric amount needed to react completely with the phosphate. Samples of the suspension were taken at intervals, through a filter that separated all solids from the liquid. The liquid sample was analyzed for phosphorous.
as §2, with “reactivity of the lanthanum compound” for “reactivity of this lanthanum compound”, “stirring bar. La2CO5 powder, made as” for “stirring bar. Anhydrous lanthanum oxycarbonate made as”, “amount of lanthanum oxycarbonate” for “amount of anhydrous lanthanum oxycarbonate”, “taken at intervals through a” for “taken at intervals, through a”

[2] = urine phosphate excretion in dogs dosed orally with capsules; type: in vivo, beagle dogs; conditions: oral capsules, 2250 mg elemental lanthanum twice daily, urine approximately 24 hours after dosing
Method: (§3) Six adult beagle dogs were dosed orally with capsules of LaCO3OH (compound A) or La2O2CO3 (compound B) in a cross-over design using a dose of 2250 mg elemental lanthanum twice daily (6 hours apart). The doses were administered 30 minutes after provision of food to the animals. At least 14 days washout was allowed between the crossover arms. Plasma was obtained pre-dose and 1.5, 3, 6, 7.5, 9, 12, 24, 36, 48, 60, and 72 hours after dosing and analyzed for lanthanum using ICP-MS. Urine was collected by catheterization before and approximately 24 hours after dosing and creatinine and phosphorus concentrations measured.
The tests led to reduction of urine phosphate excretion, a marker of phosphorous binding.

[3] = plasma lanthanum exposure in dogs (ICP-MS); type: in vivo, beagle dogs; conditions: oral capsules, 2250 mg elemental lanthanum twice daily, (standard deviation)
Method: as §3

[4] = binding efficiency test, spiked water; conditions: 0.50 g in 30.0 ml spike solution, approximately 1 mg/l of each element, 18 hrs, room temperature
Method: Tests were run to determine the binding efficiency of eight different compounds for twenty-four different elements.
The main objective of the tests was to investigate the efficiency at which the compounds bind arsenic and selenium, in view of their use in removing those elements from drinking water. Twenty-one different anions were also included to explore further possibilities. The tests were performed as follows:
The compounds given in Table 6 were added to water and a spike and were vigorously shaken at room temperature for 18 hrs. The samples were filtered and the filtrate analyzed for a suite of elements including Sb, As, Be, Cd, Ca, Cr, Co, Cu, Fe, Pb, Mg, Mn, Mo, Ni, Se, Tl, Ti, V, Zn, Al, Ba, B, Ag, and P.
2. Add standard solutions of the elements given above to make solutions containing approximately 1 mg/l of each element.
1. Weigh 0.50 g of each compound into its own 50 ml centrifuge tube.
2. Add 30.0 ml of the spike solution to each.
3. Cap tightly and shake vigorously for 18 hrs.
4. Filter solution from each centrifuge tube through 0.2 µm syringe filter. Obtain about 6 ml of filtrate.
5. Dilute filtrates 5:10 with 2% HNO3. Final Matrix is 1% HNO3.

[5] = specific surface area by the BET method; type: physicochemical; conditions: one of three repeats of Example 5
Method: For each sample, the surface area measured by the BET method and the fraction of phosphate remaining after 10 min of reaction have been tabulated. […] The rate constant k1 is defined by the following equation: d[PO4]/dt=−k1[PO4]
An aqueous HCl solution having a volume of 334.75 ml and containing LaCl3 (lanthanum chloride) at a concentration of 29.2 wt % as La2O3 was added to a 4 liter beaker and heated to 80° C. with stirring. The initial pH of the LaCl3 solution was 2.2. Two hundred and sixty five ml of an aqueous solution containing 63.59 g of sodium carbonate (Na2CO3) was metered into the heated beaker using a small pump at a steady flow rate for 2 hours. Using a Buchner filtering apparatus fitted with filter paper the filtrate was separated from the white powder product. The filter cake was mixed four times, each with 2 liters of distilled water and filtered to wash away the NaCl formed during the reaction. The washed filter cake was placed into a convection oven set at 105° C. for 2 hours or until a stable weight was observed. […] The surface area of the product was determined by the BET method. The test was repeated 3 times and slightly different surface areas and different reaction rates were obtained as shown in Table 1.

[6] = second in vivo study in rats, urinary phosphate excretion; parameters: species or system Sprague-Dawley rats; conditions: 0.3 or 0.6% of diet, average over days 2, 3, and 4
Source text: Six young adult male Sprague-Dawley rats were randomly assigned to each group. Test items were lanthanum oxycarbonates La2O2CO3 and La2CO5 (compound B and compound C), each tested at 0.3 and 0.6% of diet. There was an additional negative control group receiving Sigmacell cellulose in place of the test item.
The test items were mixed thoroughly into Teklad 7012CM diet. All groups received equivalent amounts of dietary nutrients.
Rats were maintained in the animal facility for at least five days prior to use, housed individually in stainless steel hanging cages. On the first day of testing, they were placed individually in metabolic cages along with their test diet. Every 24 hours, their output of urine and feces was measured and collected and their general health visually assessed. The study continued for 4 days. Food consumption for each day of the study was recorded. Starting and ending animal weights were recorded.
Urine samples were assayed for phosphorus, calcium, and creatinine concentration in a Hitachi 912 analyzer using Roche reagents. Urinary excretion of phosphorus per day was calculated for each rat from daily urine volume and phosphorus concentration. […] Food consumption was good for all groups. […]

| Compound | rate of removal of phosphate compared with commercial lanthanum carbonate hydrate La2(CO3)3.H2O and La2(CO3)3.4H2O [1] | capacity of phosphate removal (PO4 removed/g of La compound) [1] [mg PO4/g] | phosphate in solution removed [1] [%] | Median phosphorus/creatinine ratio (% reduction compared to pre-dose value) [2] [%] | Maximum concentration Cmax, plasma lanthanum [3] | Mean (sd) Area Under the Curve0-72 h, plasma lanthanum [3] | % Analyte Removed As [4] [%] | % Analyte Removed Be [4] [%] | % Analyte Removed Ca [4] [%] | % Analyte Removed Cd [4] [%] | % Analyte Removed Co [4] [%] | % Analyte Removed Cr [4] [%] | % Analyte Removed Cu [4] [%] | % Analyte Removed Fe [4] [%] | % Analyte Removed Mg [4] [%] | % Analyte Removed Mn [4] [%] | % Analyte Removed Pb [4] [%] | % Analyte Removed Sb [4] [%] | surface area of the white powder [5] [m^2/gm] | Urinary phosphate excretion [6] [mg/day] |
| --- | --- | --- | --- | --- | --- | --- | --- | --- | --- | --- | --- | --- | --- | --- | --- | --- | --- | --- | --- | --- |
| O=C([O-])[O-].[La+3].[OH-] [A, lanthanum carbonate hydroxide] | faster | 110 | 86 | 48.4 | 2.77 (2.1) ng/mL | 54.6 (28.0) ng-h/mL | 29 | 53 | 28 | 37 | 29 | 100 | 10 | 58 | 0 | 25 | 98 | 87 |  |  |
| O=C([O-])[O-].[La+3].[La+3].[O-2].[O-2] [Compound B, anhydrous lanthanum oxycarbonate] | faster | 120 | 73 | 37.0 | 2.45 (2.2) ng/mL | 42.7 (34.8) ng-h/mL | 92 | 100 | 21 | 85 | 59 | 100 | 98 | 100 | 0 | 99 | 99 | 97 | 26.95 | 2.3 |
| lanthanum oxycarbonate [Compound C] | faster |  |  |  |  |  | 93 | 100 | 0 | 83 | 52 | 100 | 97 | 100 | 0 | 99 | 99 | 96 |  | 1.9 |
